The text below walks through data of ChEMBL document CHEMBL3301361, “Experimental in vitro DMPK and physicochemical data on a set of publicly disclosed compounds”.

The nature of the first series: physchem. Conditions: octan-1-ol/water, pH 7.4.
The molecule `CCC1(C)CC(=O)NC1=O` (stereo not drawn) [ETHOSUXIMIDE] gave a logD of 0.23.

On to `CCc1cc2c(s1)-n1c(C)nnc1CN=C2c1ccccc1Cl` [ETIZOLAM], for which the logD came out at 2.52. For `C=C1C[C@@H]2[C@H](CC[C@]3(C)C(=O)CC[C@@H]23)[C@@]2(C)C=CC(=O)C=C12` [EXEMESTANE], the logD was 2.98. The same measure, in the same setting: in the case of `CCN(CC)CCN1C(=O)CN=C(c2ccccc2F)c2cc(Cl)ccc21` [FLURAZEPAM] it was 2.38. `Cc1cc2c(C(C)C)c(O)c(O)c(C=O)c2c(O)c1-c1c(C)cc2c(C(C)C)c(O)c(O)c(C=O)c2c1O` [GOSSYPOL] yielded a logD of 2.75. The molecule `CN1C(=O)NC(=O)C(C)(C2=CCCCC2)C1=O` (stereo not drawn) [HEXOBARBITAL] displayed a log distribution coefficient (logD) of 1.5. The same measure, in the same setting: next, `CN(C(=O)Cc1ccc(Cl)c(Cl)c1)[C@H](CN1CCCC1)c1ccccc1` [ICI-199,441]: 3.42; `CC(C)[C@@H](CN1CC[C@@](C)(c2cccc(O)c2)[C@@H](C)C1)NC(=O)[C@H]1Cc2ccc(O)cc2CN1` [JDTIC]: 2.39. In turn, `CCC1(c2cccc(O)c2)CCCCN(C)C1` (stereo not drawn) [MEPTAZINOL] yielded a logD of 0.8. The same measure, in the same setting: in the case of `NC(=O)C[S+]([O-])C(c1ccccc1)c1ccccc1` (stereo not drawn) [MODAFINIL] it was 1.12. On the same count and under the same terms, in the case of `CCn1cc(C(=O)O)c(=O)c2ccc(C)nc21` [NALIDIXIC ACID] it was -0.1; in that of `Oc1ccc2c3c1O[C@H]1c4[nH]c5ccccc5c4C[C@@]4(O)[C@@H](C2)N(CC2CC2)CC[C@]314` [NALTRINDOLE], 2.7; in that of `O=C1C=CC(=O)c2c(O)ccc(O)c21` [NAPHTHAZALIN], 1.91. The same measure, in the same setting: in the case of `CC1(C)CCC(NC(=O)[C@@H](N)CCC(=O)O)CC1` [NEBOGLAMINE] it was -0.27. Regarding `CN1CCC[C@H]1c1cccnc1` [NICOTINE], the logD is 0.5. Consider `NC(=O)c1cc([N+](=O)[O-])cc([N+](=O)[O-])c1` [NITROMIDE], for which the logD was determined as 0.81. On the same count and under the same terms, in the case of `CC(C)Oc1cccc(CC(=O)N2CCC[C@](CC[N+]34CCC(c5ccccc5)(CC3)CC4)(c3ccc(Cl)c(Cl)c3)C2)c1` [NOLPITANTIUM] it was 1.23; in that of `Oc1ccc2c3c1O[C@H]1c4[nH]c5c(c4C[C@@]4(O)[C@@H](C2)N(CC2CC2)CC[C@]314)C[C@@]1(O)[C@H]2Cc3ccc(O)c4c3[C@@]1(CCN2CC1CC1)[C@H]5O4` [NORBINALTORPHIMINE], 1.41.

The series is the same for the next values; noted with them: octan-1-ol/water, pH 7.4, LogD7.4.
Turning to `CN(C)c1ncnc2nc[nH]c12` [DIMETHYLADENINE], the logD was 0.95. For the molecule `NC(Cc1c[nH]c2ccccc12)C(=O)O` (stereo not drawn) [DL-TRYPTOPHAN], the logD is -1.17.

`CC(=O)O[C@@]12CO[C@@H]1C[C@H](O)[C@@]1(C)C(=O)[C@H](O)C3=C(C)[C@@H](OC(=O)[C@H](O)[C@@H](NC(=O)OC(C)(C)C)c4ccccc4)C[C@@](O)([C@@H](OC(=O)c4ccccc4)[C@H]21)C3(C)C` [DOCETAXEL] yielded a logD of 3.4. The molecule `CCCCC(CC)COC(=O)CC(C(=O)OCC(CC)CCCC)S(=O)(=O)O` (stereo not drawn) [DOCUSATE] registered a logD of 2.93. In turn, `CN(C)CCOC(C)(c1ccccc1)c1ccccn1` (stereo not drawn) [DOXYLAMINE] returned a logD of -0.2. Same read-out and setting: next, `Cn1c(=O)c2c(ncn2CC(O)CO)n(C)c1=O` (stereo not drawn) [DYPHYLLINE]: -1.25. Regarding `CCN(CC)CCOc1ccc(/C(=C(/Cl)c2ccccc2)c2ccccc2)cc1` [ENCLOMIPHENE], the logD is 4.09. For `Nc1ccccc1NC(=O)c1ccc(CNC(=O)OCc2cccnc2)cc1` [ENTINOSTAT], the logD worked out at 1.26.

`CCCCc1ncc(/C=C(\Cc2cccs2)C(=O)O)n1Cc1ccc(C(=O)O)cc1` [EPROSARTAN]: the logD was -0.9. Same read-out and setting: next, `NC(=O)N1c2ccccc2C[C@H](O)c2ccccc21` [ESLICARBAZEPINE]: 0.79. On the same count and under the same terms, in the case of `C=C(CC)C(=O)c1ccc(OCC(=O)O)c(Cl)c1Cl` [ETHACRYNIC ACID] it was 0.02; in that of `NC(N)=Nc1nc(CSCCC(N)=NS(N)(=O)=O)cs1` [FAMOTIDINE], -0.6; in that of `O=C(O)Cc1csc(-c2ccc(Cl)cc2)n1` [FENCLOZIC ACID], -0.22. Still for that read-out and setting: next, `Oc1ccc(C2CNCCc3c2cc(O)c(O)c3Cl)cc1` (stereo not drawn) [FENOLDOPAM]: 0.87.

In the case of `Cc1c(-c2ccccc2)oc2c(C(=O)OCCN3CCCCC3)cccc2c1=O` [FLAVOXATE], the logD came out at 3.42. Same read-out and setting: in the case of `CC(=O)[C@@]1(O)CC[C@H]2[C@@H]3C[C@H](C)C4=CC(=O)C=C[C@]4(C)[C@@]3(F)[C@@H](O)C[C@@]21C` [FLUOROMETHOLONE] it was 2.65; in that of `COc1ccc(-c2coc3cc(O)ccc3c2=O)cc1` [FORMONONETIN], 3.05.

Molecule `CCOC(=O)c1ccc(OC(=O)CCCCCNC(=N)N)cc1` [GABEXATE] returned a logD of 2.41. On the same count and under the same terms, in the case of `Nc1ccn([C@@H]2O[C@H](CO)[C@@H](O)C2(F)F)c(=O)n1` [GEMCITABINE] it was -1.5.

The molecule `O=c1c(-c2ccc(O)cc2)coc2cc(O)cc(O)c12` [GENISTEIN] came in with a logD of 3.06.

Consider `O=C(OCC(O)CO)c1ccccc1Nc1ccnc2cc(Cl)ccc12` (stereo not drawn) [GLAFENINE], for which the logD was 3.5. With `COc1ccccc1OCC(O)CO` (stereo not drawn) [GUAIFENESIN], the logD is 0.24.

`COc1ccc(COc2ccc(Cc3cnc(N)nc3N)cc2OC)cc1` [GW632580X] came in with a logD of 2.27. On to `CN1CCCN(C(c2ccccc2)c2ccc(Cl)cc2)CC1` (stereo not drawn) [HOMOCHLORCYCLIZINE], for which the logD was 2.36. `CCN(CCO)CCCC(C)Nc1ccnc2cc(Cl)ccc12` (stereo not drawn) [HYDROXYCHLOROQUINE]: the logD is 0.77. With `OCCOCCN1CCN(C(c2ccccc2)c2ccc(Cl)cc2)CC1` (stereo not drawn) [HYDROXYZINE], the logD was determined as 3.08. The same measure, in the same setting: next, `COc1cc(C(=O)NS(=O)(=O)c2ccccc2)ccc1Cn1ncc2ccc(NC(=O)OC3CCCC3)cc21` [ICI-198615]: 1.8. In turn, `Oc1ccc(C2=Cc3ccc(O)cc3OC2)cc1` [IDRONOXIL] had a logD of 3.8. For the molecule `Oc1c(I)cc(I)c2cccnc12` [IODOQUINOL], the logD was determined as 2.19. In turn, `CC(C)NC[C@@H](C(=O)N1CCN(c2ncnc3c2[C@H](C)C[C@H]3O)CC1)c1ccc(Cl)cc1` [IPATASERTIB] gave a logD of 1.3.

For the molecule `CN(C)CCCn1c2c(c3ccccc31)CCCCCC2` [IPRINDOLE], the logD was 2.96.

As for `CC(C)NNC(=O)c1ccncc1` [IPRONIAZID], the logD was determined as 0.33. On to `NNC(=O)c1ccncc1` [ISONIAZID], for which the logD is -0.57. Turning to `c1ccc2cnccc2c1` [ISOQUINOLINE], the logD is 1.6.

In turn, `O=C(c1ccccc1)c1ccc2n1CCC2C(=O)O` (stereo not drawn) [KETOROLAC] came in with a logD of -0.93. `CCCc1c(OCCCSc2ccc(CC(=O)O)cc2Cl)ccc2c(CC)noc12` [L-165461]: the logD was determined as 3.92. `c1ccc([C@H]2CN3CCSC3=N2)cc1` [LEVAMISOLE] displayed a logD of 0.81.

For the molecule `COc1ccc2c(c1)N(C[C@H](C)CN(C)C)c1ccccc1S2` [LEVOMEPROMAZINE], the logD amounted to 2.99. On to `CC1(C)Cc2c(-c3ccccc3)c(-c3ccc(Cl)cc3)c(CC(=O)O)n2C1` [LICOFELONE], for which the logD worked out at 3.07. `O=c1[nH]c2cc(Cl)c(Cl)c([N+](=O)[O-])c2[nH]c1=O` [LICOSTINEL] returned a logD of 0.21. In the case of `CC(Oc1c(Cl)cccc1Cl)C1=NCCN1` (stereo not drawn) [LOFEXIDINE], the logD was 0.48. `CC(C)(N)C(=O)N[C@H](Cc1c[nH]c2ccccc12)C(=O)N[C@H](Cc1c[nH]c2ccccc12)NC=O` [MACIMORELIN] registered a pH-dependent lipophilicity (logD) of 1. In turn, `CNC1(C)C2CCC(C2)C1(C)C` (stereo not drawn) [MECAMYLAMINE] showed a logD of -0.84. Same read-out and setting: in the case of `Cc1ccc(Cl)c(Nc2ccccc2C(=O)O)c1Cl` [MECLOFENAMIC ACID] it was 2.33.

`CC(=O)[C@H]1CC[C@H]2[C@@H]3C[C@H](C)C4=CC(=O)CC[C@]4(C)[C@H]3[C@@H](O)C[C@]12C` [MEDRYSONE] returned a logD of 3.25. Still for that read-out and setting: in the case of `CCC1(c2ccccc2)NC(=O)N(C)C1=O` (stereo not drawn) [MEPHENYTOIN] it was 1.59; in that of `CN1CCCCC1CCN1c2ccccc2Sc2ccc([S+](C)[O-])cc21` (stereo not drawn) [MESORIDAZINE], 1.6. Take `COc1ccccc1OCC(O)COC(N)=O` (stereo not drawn) [METHOCARBAMOL]: the logD was 0.36. Same read-out and setting: in the case of `Cc1ccccc1N1C(=O)c2cc(S(N)(=O)=O)c(Cl)cc2NC1C` (stereo not drawn) [METOLAZONE] it was 1.64; in that of `CN1CCN2c3ncccc3Cc3ccccc3C2C1` (stereo not drawn) [MIRTAZAPINE], 2.82; in that of `CCc1c(C)[nH]c2c1C(=O)C(CN1CCOCC1)CC2` (stereo not drawn) [MOLINDONE], 1.54. Take `COc1ccc2cc(CCC(C)=O)ccc2c1` [NABUMETONE]: the logD is 3.06. Same read-out and setting: next, `Cc1cnc(NC(=O)c2cc(Oc3cnc(C(=O)N(C)C)nc3)c3cc(C)oc3c2)cn1` [NERIGLIATIN]: 2.1. `O=C(O)c1cccnc1Nc1cccc(C(F)(F)F)c1` [NIFLUMIC ACID] displayed a logD of 1. Same read-out and setting: next, `CCn1cc(C(=O)O)c(=O)c2cc(F)c(N3CCNCC3)cc21` [NORFLOXACIN]: -0.87; `COc1ncc(-c2ccc3nccc(-c4ccnnc4)c3c2)cc1NS(=O)(=O)c1ccc(F)cc1F` [OMIPALISIB]: 2.5; `O=c1c(-c2ccc(O)c(O)c2)coc2cc(O)cc(O)c12` [OROBOL]: 2.45. For the molecule `Cc1[nH]c2ccccc2c1CCNCc1ccc(/C=C/C(=O)NO)cc1` [PANOBINOSTAT], the logD is 1.1. As for `COc1ccnc(C[S+]([O-])c2nc3ccc(OC(F)F)cc3[nH]2)c1OC` (stereo not drawn) [PANTOPRAZOLE], the logD amounted to 2. As for `CC(=O)CCCCn1c(=O)c2c(ncn2C)n(C)c1=O` [PENTOXIFYLLINE], the logD was determined as 0.22. `NCCCC(=O)OCCN1CCN(CCCN2c3ccccc3Sc3ccc(Cl)cc32)CC1` [PERPHENAZINE 4-AMINOBUTYRATE] returned a logD of 1.5. The molecule `CN(c1ncccc1CNc1nc(Nc2ccc3c(c2)CC(=O)N3)ncc1C(F)(F)F)S(C)(=O)=O` [PF-00562271] had a logD of 2.63. In the case of `OCCn1cc(-c2cnc3nnn(Cc4ccc5ncccc5c4)c3n2)cn1` [PF-04217903], the logD was 1.7. `CC(C)CNCc1ccc(-c2ccccc2S(=O)(=O)N2CCCC2)cc1` [PF-04455242] showed a logD of 1.9. In turn, `Nc1ccc(/N=N/c2ccccc2)c(N)n1` [PHENAZOPYRIDINE] showed a logD of 3.22.

What is called logD is lipophilicity at a set pH, counting ionised and neutral species.
